# Data: patent publication US20230064983A1 (priority 2020, published 2023)
# Values joined by “and” are separate entries in the source; they are usually repeats but may differ in a detail not shown here. Equal values may be shown once. Read-outs that look alike come from different tables or passages of the source.
# Key:
# [1] = molecular target: T1, EGFR with insertion SVD between D770 and N771 (mutEGFR D770_N771insSVD) (Homo sapiens, UniProt P00533, DUP768-770); assay: Exon20-Mutant-EGFR(D770_N771insSVD) kinase assay (TR-FRET); assay type: biochemical; conditions: 2 mM ATP, Table 2
# T1 construct: amino acids R669 to A1210; made in house; host or cells: Sf9 insect cells (baculovirus)
# Bub1 = molecular target: T2, Bub1 (Homo sapiens, UniProt O43683); assay: Bub1 high ATP kinase assay (TR-FRET); assay type: biochemical; conditions: 2 mM ATP, Table 3
# T2 construct: catalytic domain of human Bub1 (amino acids 704-1085); His6 (N); made in house; host or cells: insect cells (Hi5)
# In short: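 Read-out was the 665/620 nm TR-FRET ratio after 1 h at 22 °C with EDTA stop mix (streptavidin-XL665, anti-phosphoserine antibody, Eu anti-mouse IgG). Beforehand, a biotinylated peptide was phosphorylated for 60 min at 22 °C under high ATP by His6-tagged human Bub1 residues 704-1085 expressed in Hi5 cells, about 200 ng/ml.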
# Ba/F3-EGFR-WT cells = Ba/F3-EGFR-WT cells (Homo sapiens, UniProt P00533); assay: Ba/F3 cell survival assay, wild type EGFR; assay type: cell-based; conditions: Cell Titer-Glo, 48 h, with 10 ng/mL EGF; Table 4; read-out: BA/F3 (wild type) IC50
# [2] = molecular target: Ba/F3-EGFR-D770_N771insSVD cells (Homo sapiens, UniProt P00533, DUP768-770, cells depend on it); assay: Ba/F3 cell survival assay, EGFR D770_N771insSVD; assay type: cell-based; conditions: Cell Titer-Glo, 48 h, without IL-3; Table 4; read-out: BA/F3 (insSVD) IC50
# [3] = Bub1 high ATP (2 mM) IC50, TR-FRET
# T1 sequence (P00533 other isoform, or with tags, fused parts or gaps DUP768-770): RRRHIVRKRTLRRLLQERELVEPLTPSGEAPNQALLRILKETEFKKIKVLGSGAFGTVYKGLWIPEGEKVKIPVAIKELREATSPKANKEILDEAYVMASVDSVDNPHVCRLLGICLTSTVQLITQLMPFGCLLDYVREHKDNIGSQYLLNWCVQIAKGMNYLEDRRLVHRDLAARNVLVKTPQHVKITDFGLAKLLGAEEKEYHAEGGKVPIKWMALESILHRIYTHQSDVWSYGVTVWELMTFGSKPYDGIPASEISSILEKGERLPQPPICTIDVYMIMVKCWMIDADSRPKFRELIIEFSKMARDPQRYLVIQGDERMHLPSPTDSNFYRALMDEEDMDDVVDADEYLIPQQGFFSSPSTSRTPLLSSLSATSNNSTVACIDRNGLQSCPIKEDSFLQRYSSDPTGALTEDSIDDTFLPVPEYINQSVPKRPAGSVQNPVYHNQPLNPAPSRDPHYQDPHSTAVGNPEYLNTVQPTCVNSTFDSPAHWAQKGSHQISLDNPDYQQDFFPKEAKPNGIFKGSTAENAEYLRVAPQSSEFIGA
# Sequence of Ba/F3-EGFR-WT cells (P00533 whole entry, looked up, stated change not applied): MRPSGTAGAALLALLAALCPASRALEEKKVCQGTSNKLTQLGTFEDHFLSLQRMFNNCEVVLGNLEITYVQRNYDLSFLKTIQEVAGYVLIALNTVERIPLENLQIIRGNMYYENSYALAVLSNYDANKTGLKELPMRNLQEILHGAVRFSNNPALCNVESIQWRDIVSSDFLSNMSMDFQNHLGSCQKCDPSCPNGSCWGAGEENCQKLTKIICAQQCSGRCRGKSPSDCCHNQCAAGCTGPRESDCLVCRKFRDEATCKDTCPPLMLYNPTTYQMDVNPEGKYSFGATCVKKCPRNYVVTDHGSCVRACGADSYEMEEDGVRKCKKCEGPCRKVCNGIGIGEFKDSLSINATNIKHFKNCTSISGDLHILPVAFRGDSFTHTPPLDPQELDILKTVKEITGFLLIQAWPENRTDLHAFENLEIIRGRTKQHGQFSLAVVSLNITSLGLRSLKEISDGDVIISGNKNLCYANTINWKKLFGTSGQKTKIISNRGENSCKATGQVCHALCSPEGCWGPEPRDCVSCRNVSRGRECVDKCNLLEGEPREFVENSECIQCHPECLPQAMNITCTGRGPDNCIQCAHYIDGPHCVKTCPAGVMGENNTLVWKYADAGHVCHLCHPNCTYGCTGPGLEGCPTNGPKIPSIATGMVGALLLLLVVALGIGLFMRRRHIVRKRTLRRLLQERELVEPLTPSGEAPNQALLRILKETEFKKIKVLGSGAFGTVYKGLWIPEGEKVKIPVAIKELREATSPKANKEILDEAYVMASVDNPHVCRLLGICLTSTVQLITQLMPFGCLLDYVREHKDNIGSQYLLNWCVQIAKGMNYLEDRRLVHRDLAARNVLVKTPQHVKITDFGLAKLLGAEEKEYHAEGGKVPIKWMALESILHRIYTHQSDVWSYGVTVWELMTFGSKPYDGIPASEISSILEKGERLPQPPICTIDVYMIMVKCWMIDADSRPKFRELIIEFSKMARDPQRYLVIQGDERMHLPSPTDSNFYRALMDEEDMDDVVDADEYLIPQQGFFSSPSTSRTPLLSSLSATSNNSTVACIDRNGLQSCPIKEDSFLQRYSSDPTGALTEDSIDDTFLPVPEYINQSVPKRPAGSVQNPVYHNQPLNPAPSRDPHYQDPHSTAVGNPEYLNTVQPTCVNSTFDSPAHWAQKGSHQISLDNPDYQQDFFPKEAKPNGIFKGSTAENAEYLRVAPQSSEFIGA
# Sequence of Ba/F3-EGFR-D770_N771insSVD cells (P00533 with tags, fused parts or gaps DUP768-770): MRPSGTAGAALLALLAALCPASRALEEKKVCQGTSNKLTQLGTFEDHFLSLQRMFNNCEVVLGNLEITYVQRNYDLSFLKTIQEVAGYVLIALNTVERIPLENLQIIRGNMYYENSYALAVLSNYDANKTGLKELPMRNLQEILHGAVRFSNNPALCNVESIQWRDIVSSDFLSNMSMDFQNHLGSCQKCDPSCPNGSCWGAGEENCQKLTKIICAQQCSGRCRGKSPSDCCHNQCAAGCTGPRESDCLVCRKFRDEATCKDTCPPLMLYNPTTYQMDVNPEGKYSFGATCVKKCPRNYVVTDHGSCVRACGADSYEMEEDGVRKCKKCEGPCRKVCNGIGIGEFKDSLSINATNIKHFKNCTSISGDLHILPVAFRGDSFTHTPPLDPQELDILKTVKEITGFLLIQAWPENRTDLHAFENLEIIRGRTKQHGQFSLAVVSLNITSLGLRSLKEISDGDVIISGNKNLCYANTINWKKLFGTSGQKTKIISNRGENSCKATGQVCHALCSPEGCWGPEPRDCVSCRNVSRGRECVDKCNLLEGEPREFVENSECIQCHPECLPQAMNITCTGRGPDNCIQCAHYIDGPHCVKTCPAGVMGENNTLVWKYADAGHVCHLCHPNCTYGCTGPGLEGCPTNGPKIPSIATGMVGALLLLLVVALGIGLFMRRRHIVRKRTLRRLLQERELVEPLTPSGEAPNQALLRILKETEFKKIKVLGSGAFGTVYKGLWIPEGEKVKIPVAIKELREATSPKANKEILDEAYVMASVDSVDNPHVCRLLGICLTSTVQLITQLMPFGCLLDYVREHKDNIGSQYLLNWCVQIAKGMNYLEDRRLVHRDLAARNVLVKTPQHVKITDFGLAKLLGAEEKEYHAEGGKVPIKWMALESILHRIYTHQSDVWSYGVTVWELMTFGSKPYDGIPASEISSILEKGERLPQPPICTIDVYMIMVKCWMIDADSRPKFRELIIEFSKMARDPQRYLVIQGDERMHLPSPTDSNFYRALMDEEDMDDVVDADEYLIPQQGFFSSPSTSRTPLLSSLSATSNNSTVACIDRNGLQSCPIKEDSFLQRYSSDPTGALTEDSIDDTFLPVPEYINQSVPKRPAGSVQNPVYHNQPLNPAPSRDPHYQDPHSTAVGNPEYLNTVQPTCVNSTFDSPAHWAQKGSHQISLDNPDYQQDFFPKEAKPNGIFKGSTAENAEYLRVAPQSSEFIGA
# T2 sequence (O43683 704-1085): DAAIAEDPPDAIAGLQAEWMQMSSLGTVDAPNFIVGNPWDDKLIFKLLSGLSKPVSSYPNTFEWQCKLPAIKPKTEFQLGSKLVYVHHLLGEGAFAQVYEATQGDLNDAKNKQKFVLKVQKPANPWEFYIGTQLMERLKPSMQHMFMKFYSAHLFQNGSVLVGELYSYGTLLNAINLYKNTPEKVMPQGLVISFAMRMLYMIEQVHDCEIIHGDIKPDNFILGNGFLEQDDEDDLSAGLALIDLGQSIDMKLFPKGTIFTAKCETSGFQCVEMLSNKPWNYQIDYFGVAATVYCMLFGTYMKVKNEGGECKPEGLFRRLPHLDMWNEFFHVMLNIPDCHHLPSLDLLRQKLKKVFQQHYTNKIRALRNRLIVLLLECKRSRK
Compound,mutEGFR (D770_N771insSVD) kinase assay IC50 [1],IC50 (Bub1; [3]),"IC50 (Bub1; read-out: Bub1 high ATP (2 mM) IC50, TR-FRET)",GI50 (Ba/F3-EGFR-WT cells),GI50 [2]
"C=CCOCCOc1cnccc1-c1[nH]c2c(c1Nc1cccc(Cl)c1OC)C(=O)NCC2CC=C (stereo not drawn) [Example 114, 7-allyl-2-[3-(2-allyloxyethoxy)-4-pyridyl]-3-(3-chloro-2-methoxy-anilino)-1,5,6,7-tetrahydropyrrolo[3,2-c]pyridin-4-one]",0.181 nM,2070 nM,–,347 nM,28.7 nM
"COc1c(Cl)cccc1Nc1c(-c2ccncc2OCC2COC(C)(C)CO2)[nH]c2c1C(=O)NC1(CC1)C2 (single isomer, unassigned) [Example 133, 3′-(3-chloro-2-methoxyanilino)-2′-(3-{[5,5-dimethyl-1,4-dioxan-2-yl]methoxy}pyridin-4-yl)-1′,7′-dihydrospiro[cyclopropane-1,6′-pyrrolo[3,2-c]pyridin]-4′(5′H)-one]",0.341 nM,1650 nM,–,484 nM,22.2 nM
"COCC(C)Oc1cnccc1-c1[nH]c2c(c1Nc1cccc(Cl)c1OC)C(=O)N[C@H](C)C2 (single isomer, unassigned) [Example 43]",0.418 nM,> 20000 nM,–,1860 nM,219 nM
"COCC(C)Oc1cnccc1-c1[nH]c2c(c1Nc1cccc(Cl)c1OC)C(=O)N[C@@H]1CCC[C@H]21 (stereo partly drawn) [Example 49, (5aR,8aS)-3-(3-chloro-2-methoxyanilino)-2-{3-[(1-methoxypropan-2-yl)oxy]-4-pyridyl}-5,5a,6,7,8,8a-hexahydrocyclopenta[b]pyrrolo[2,3-d]pyridin-4(1)-one]",0.275 nM,13200 nM,–,291 nM,33.1 nM
"COc1c(Cl)cccc1Nc1c(-c2ccncc2OCCC2CCCCO2)[nH]c2c1C(=O)NC1(CCC1)C2 (stereo not drawn) [Example 128, 3-(3-chloro-2-methoxy-anilino)-2-[3-(2-tetrahydropyran-2-ylethoxy)-4-pyridyl]spiro[5,7-dihydro-1H-pyrrolo[3,2-c]pyridine-6,1′-cyclobutane]-4-one]",1.06 nM,726 nM,–,942 nM,38.4 nM
"COCC(C)Oc1cnccc1-c1[nH]c2c(c1Nc1cccc(Cl)c1OC)C(=O)N[C@@H]1CCC[C@H]21 (single isomer, unassigned) [Example 50]",0.393 nM,> 20000 nM,–,1650 nM,349 nM
"COc1c(Cl)cccc1Nc1c(-c2ccncc2OCC(C)OC)[nH]c2c1C(=O)N[C@H](C)C2 (single isomer, unassigned) [Example 81]",0.157 nM,4870 nM,–,583 nM,44 nM
"COc1c(Cl)cccc1Nc1c(-c2ccncc2OCC2(C)CCO2)[nH]c2c1C(=O)NCC2CCO (single isomer, unassigned) [Example 20, 3-(3-chloro-2-methoxyanilino)-7-(2-hydroxyethyl)-2-{3-[(2-methyloxetan-2-yl)methoxy]pyridin-4-yl}-1,5,6,7-tetrahydro-4H-pyrrolo[3,2-c]pyridin-4-one]",0.316 nM,17200 nM,–,1170 nM,122 nM
"COc1c(Cl)cccc1Nc1c(-c2ccncc2OCC2CCCCN2C)[nH]c2c1C(=O)N[C@H](C)C2 (single isomer, unassigned) [Example 85]",0.948 nM,–,> 20000 nM,1170 nM,103 nM

# Second part, led by results:
mutEGFR (D770_N771insSVD) kinase assay IC50 [1],IC50 (Bub1; [3]),"IC50 (Bub1; read-out: Bub1 high ATP (2 mM) IC50, TR-FRET)",Compound,GI50 (Ba/F3-EGFR-WT cells),GI50 [2]
0.431 nM,> 20000 nM and 19400 nM,–,"Cc1c(Cl)cccc1Nc1c(-c2ccncc2OCC2CCCCO2)[nH]c2c1C(=O)NCC2C (single isomer, unassigned) [Example 118, 3-(3-chloro-2-methyl-anilino)-7-methyl-2-[3-(tetrahydropyran-2-ylmethoxy)-4-pyridyl]-1,5,6,7-tetrahydropyrrolo[3,2-c]pyridin-4-one]",938 nM,22.3 nM
1.17 nM,> 20000 nM,–,"COc1c(Cl)cccc1Nc1c(-c2ccncc2OCC2CCCCO2)[nH]c2c1C(=O)NCC2C (single isomer, unassigned) [Example 46, 3-(3-chloro-2-methoxy-anilino)-7-methyl-2-[3-(tetrahydropyran-2-ylmethoxy)-4-pyridyl]-1,5,6,7-tetrahydropyrrolo[3,2-c]pyridin-4-one]",2750 nM,125 nM
0.51 nM,1440 nM,–,"COc1c(Cl)cccc1Nc1c(-c2ccncc2OC[C@@H]2CCCCO2)[nH]c2c1C(=O)NC1(CCC1)C2 [Example 127, 3′-(3-chloro-2-methoxyanilino)-2′-(3-{[(2S)-oxan-2-yl]methoxy}pyridin-4-yl)-1′,7′-dihydrospiro[cyclobutane-1,6′-pyrrolo[3,2-c]pyridin]-4′(5′H)-one]",406 nM,12.1 nM
0.72 nM,> 20000 nM,–,"COc1c(Cl)cccc1Nc1c(-c2ccncc2OC[C@@H]2CCCO2)[nH]c2c1C(=O)NCC2CCC(F)(F)F (single isomer, unassigned) [Example 99]",846 nM,45.9 nM
0.499 nM,3880 nM,–,"COc1c(Cl)cccc1Nc1c(-c2ccncc2OC[C@@H]2COCCN2C)[nH]c2c1C(=O)NCC2CCF (single isomer, unassigned) [Example 90]",1170 nM,83.8 nM
0.282 nM,14500 nM,–,"COc1c(Cl)cccc1Nc1c(-c2ccncc2OCC2COCCO2)[nH]c2c1C(=O)N[C@@H]1CCC[C@H]21 (single isomer, unassigned) [Example 53]",712 nM,34.9 nM
0.104 nM,11100 nM,–,"COc1c(Cl)cccc1Nc1c(-c2ccncc2OCC2OCCCC2(F)F)[nH]c2c1C(=O)N[C@H](C)C2 (single isomer, unassigned) [Example 75]",264 nM,18.2 nM
0.279 nM,1100 nM,–,"COc1c(Cl)cccc1Nc1c(-c2ccncc2OC[C@@H]2CCCO2)[nH]c2c1C(=O)NC1(CCC1)C2 [Example 126, 3′-(3-chloro-2-methoxyanilino)-2′-(3-{[(2S)-oxolan-2-yl]methoxy}pyridin-4-yl)-1′,7′-dihydrospiro[cyclobutane-1,6′-pyrrolo[3,2-c]pyridin]-4′(5′H)-one]",814 nM,46.4 nM
0.188 nM,628 nM,–,"COc1c(Cl)cccc1Nc1c(-c2ccncc2OC[C@@H]2CCCO2)[nH]c2c1C(=O)NC(C(F)(F)F)C2 (mixture of isomers) [Example 38, 3-(3-chloro-2-methoxy-anilino)-2-(3-{[(2S)-tetrahydrofuran-2-yl]methoxy}-4-pyridyl)-6-(trifluoromethyl)-1,5,6,7-tetrahydropyrrolo[3,2-c]pyridin-4-one]",996 nM,138 nM
